{"source": "patent US20190167711A1", "about": "“METHODS FOR DIAGNOSIS AND TREATMENT OF ACUTE LYMPHOBLASTIC LEUKEMIA” (MOR RESEARCH APPLICATIONS LTD., priority 2014, published 2019)", "key": {"[1]": {"tested_on": "NAD^+ formation in Nalm-6 cell line", "test": "NAD^+/NADH assay in Nalm-6 cells treated with FK866", "format": "cell-based", "description": "(§1) The NAD^+/NADH ratio was measured in whole-cell extracts of NALM-6 cells using the Biovision NAD^+/NADH Quantification Colorimetric™ Kit (BioVision, San Francisco, Calif., USA) (also referred to herein as “NAD assay”) according to the manufacturer's protocol (see, for example, https://www.biovision.com/documentation/datasheets/K337.pdf). The NAD Cycling Enzyme Mix in the kit specifically recognizes NADH/NAD^+ in an enzyme cycling reaction. After 4 hrs, the plate was read at optical density (OD) 450 nm. The readings were normalized to the cell number and the NAD^+/NADH ratio was calculated as: (total NAD^+−NADH)/NADH.\nNalm-6 cells were treated for 1, 3, and 6 hours with 1 nM FK866 (Sigma) and NAD^+ formation was measured using NAD assay as described in Materials and Methods.\nThe sensitivity of NALM-6 cells to the NAMPT inhibitor FK866 was measured in cells following transfection with miR-451 mimic (SEQ ID NO: 2), miR-451 inhibitor (miArrest™ miR-451 expression clone; GeneCopoeia™), or scrambled miR. Sensitivity was assessed by measuring the levels of NAD^+. […] Thus, miR-451 expression can distinguish between patients that could benefit from treatment with NAMPT inhibitors such as FK866."}, "[2]": {"tested_on": "Nalm-6 cells", "test": "Annexin V-FITC apoptosis assay in Nalm-6 cells", "format": "cell-based", "conditions": "1 nM for 48 hours, Nalm-6 cells, FACS", "description": "Cells were stained with annexin V-fluorescein-5-isothiocyanate (FITC) conjugated antibody and propidium iodide (PI) using the Annexin V-FITC Apoptosis Detection Kit (ab14085, Abcam® Incorporated, Cambridge, Mass., USA) according to manufacturer's instructions (see, for example, https://www.abcam.com/ps/products/14/ab14085/documents/ab14085%20Annexin %20V%20FITC%20Apoptosis%20Detection%20Kit%20v4%20(website).pdf), and read on the flow cytometer. Annexin V Apoptosis Detection Kit is based on the observation that soon after initiating apoptosis, cells translocate the membrane phosphatidylserine (PS) from the inner face of the plasma membrane to the cell surface. Once on the cell surface, PS can be easily detected by staining with a fluorescent conjugate (e.g., FITC) of Annexin V, a protein that has a high affinity for PS. The one-step staining procedure takes only 10 minutes. When performing both Annexin V-FITC and PI staining, it is possible to differentiate apoptosis vs necrosis.\n(§2) To measure the effect of NAD^+ depletion following FK866 treatment of Nalm-6 cells, apoptosis and viability were measured as described in Materials and Methods. Nalm-6 cells were treated for 48 hours with 1 nM FK866, and then apoptosis was measured using FACS."}, "[3]": {"tested_on": "Nalm-6 cells", "test": "XTT cell viability assay in Nalm-6 cells", "format": "cell-based", "conditions": "1 nM for 48 hours, Nalm-6 cells, XTT", "description": "Cell viability assay was performed using the Cell Proliferation Kit comprising the second-generation tetrazolium dye, XTT. Viable cells with active metabolism convert XTT into an orange colored reduction product, whereas dead cells lose the ability to reduce XTT, thus, color formation serves as a useful and convenient marker of only the viable cells.\nThe XTT kit was applied to NALM6 transfected cells according to the manufacturer's protocol (Biological Industries, Kibbutz Beit Haemek, Israel). Cells were incubated for 3 hours with the XTT reagent and quantity of reduced XTT (directly proportional to the number of viable cells) was assessed by recording changes in absorbance as measured on a microplate reader at 450-500 nm optical density (OD).\nas §2"}, "[4]": {"tested_on": "ALL NALM-6 cells", "test": "FK866 in ALL xenograft mouse model", "format": "in vivo, NSG™ mice", "description": "Ten million ALL NALM-6 cells in 100 μl saline were injected subcutaneously, above the femur, to 6-8 weeks-old NSG™ mice (NSG™ mouse model variants are the most highly immunodeficient mice and therefore were chosen as models for cancer xenograft modelling). Tumors were clinically evident 15-28 days following injection in more than 85% of the mice (n=175). Mice were divided into groups receiving either FK866 or vehicle treatment. Mice in the treatment group received FK866 in 0.9% saline intraperitoneally at a dose of 15 mg/Kg daily for 5 days. Vehicle in the control group was injected intraperitoneally once a day for 5 days repeated weekly. The volume of tumors was measured daily until mice were sacrificed. Tumor volume was monitored using vernier caliper measurements and calculated using the formula π(length)(width)^2/6. Each experiment was ended when tumor size reached 12×12 mm^3. All animal experiments were performed under an approved animal study protocol.\nFollowing the in vitro studies described in Example 4 herein, the sensitivity of ALL tumor growth to a NAMPT inhibitor was tested in-vivo in an ALL xenograft mouse model. The NAMPT inhibitor tested was the known small molecule FK866. The effect of FK866 was tested in the ALL xenograft mouse model in 4 independent experiments each performed on a group of 82 NSG™ mice as follows: 41 mice were treated with FK866 (15 mg/kg) once a day for 5 days repeated weekly, and 41 mice served as controls (i.e., were not treated with FK866 and received saline instead).\nMice were treated from the day tumors were clinically evident in all mice (day 25), and tumors volume was measured daily."}, "[5]": {"tested_on": "NALM-6/antagomiR-451", "test": "FK866 in xenograft of NALM-6/antagomiR-451 stable line", "format": "in vivo, NSG™ mice", "description": "(§3) miR-451 precursor and antagomiR-451 expression clones were obtained from GeneCopoeia™ (GeneCopoeia, Rockville, Md., USA). Stable cell lines were prepared by the Tel Aviv University's Vector Core Facility by transduction of ALL cell line (NALM-6) with lentiviral particles co-encoding miR-451 precursor or antagomiR-451, the ORF for EGFP/mCherry and puromycin-resistance, under the control of individual CMV promoters. The ORFs and the miR-451 precursor/antagomiR-451 oligonucleotide sequences were incorporated into the pLL3.7 3rd generation lentiviral vector. […]\n(§4) Ten million ALL NALM-6 cells in 100 μl saline were injected subcutaneously, above the femur, to 6-8 weeks-old NSG™ mice (NSG™ mouse model variants are the most highly immunodeficient mice and therefore were chosen as models for cancer xenograft modelling). […] The volume of tumors was measured daily until mice were sacrificed. Tumor volume was monitored using vernier caliper measurements and calculated using the formula π(length)(width)^2/6. […]\n(§5) In order to assess a possible association or correlation between miR-451 expression levels and sensitivity to in-vivo treatment of ALL with a NAMPT inhibitor, the effect of the NAMPT inhibitor FK866 was assessed in the presence of elevated levels or lowered levels of miR-451 in ALL xenograft mouse model. […] Tumors volume was measured daily."}, "[6]": {"tested_on": "NALM-6/miR-451 mimic", "test": "FK866 in xenograft of NALM-6/miR-451 mimic stable line", "format": "in vivo, NSG™ mice", "description": "as §3, §4, §5"}, "[7]": {"conditions": "Phase I, patients with advanced cancers; cited from earlier work"}, "[8]": {"tested_on": "NAMPT", "test": "NAMPT expression after TPA treatment", "format": "cell-based", "conditions": "50 ng/ml for 24 hours, human peripheral blood cells, FACS", "description": "Studies by several investigators have shown that 12-0-tetradecanoylphorbol-13-acetate (TPA) (Sigma) is an extraordinarily potent tumor promoter and stimulates protein kinase C (PKC). Since NAMPT is over-expressed in several tumors, it was believed that it might be possible to achieve NAMPT stimulation by TPA treatment. To test this hypothesis, human peripheral blood cells were treated with 50 ng/ml TPA for 24 hours, and NAMPT expression was measured by FACS using a specific NAMPT antibody."}, "[9]": {"tested_on": "NAD^+ levels", "test": "NAD assay in TPA stimulated cells", "format": "cell-based, human", "description": "as §1\nNAMPT is the rate-limiting enzyme in the NAD^+ biosynthetic pathway. Thus, NAD^+ levels in the stimulated cells were measured using a standard NAD assay (BioVision NADH/NAD^+ Quantification Colorimetric™ Kit)."}, "[10]": {"tested_on": "phospho-STAT protein", "test": "Phospho-STAT levels by FACS after miR-1290 mimic transfection", "format": "cell-based", "conditions": "NALM-6 cell line transfected", "description": "Phosphorylated STAT (phospho-STAT, activated by JAK) levels were measured by FACS analysis following transfection of miR-1290 mimic (overexpression) into NALM-6 cell line. An increase of 50% in the levels of phospho-STAT protein was evident in the cells expressing high levels of miR-1290 (FIG. 11)."}}}
{"compound": "O=C(/C=C/c1cccnc1)NCCCCC1CCN(C(=O)c2ccccc2)CC1", "note": "[FK866]", "values": [{"measurement": "NAD^+ detection following treatment", "setting": "[1]; 1 nM for 1, 3 and 6 hours, Nalm-6 cells", "value": "gradual decrease in NAD^+ detection"}, {"measurement": "change in NAD^+ production after FK866 treatment compared to control", "setting": "[1]; Nalm-6/miR-451 inhibitor cells", "value": "more than 5 fold"}, {"measurement": "change in NAD^+ production after FK866 treatment compared to control", "setting": "[1]; Nalm-6/miR-451 mimic cells", "value": "less change in NAD^+ production"}, {"measurement": "apoptosis level", "setting": "[2]", "value": "significantly increased apoptosis level"}, {"measurement": "cell viability", "setting": "[3]", "value": "significant decrease in cell viability"}, {"measurement": "mean tumor volume at the end of experiment", "setting": "[4]; 15 mg/kg daily, day 32", "value": "300.36±63.67", "unit": "mm^3"}, {"measurement": "tumor growth increase", "setting": "[4]; 15 mg/kg daily, day 32 vs day 25", "value": "less than 150%"}, {"measurement": "volume change treated vs non-treated group", "setting": "[4]; within 4 days of treatment (day 29)", "value": "tumor growth inhibition"}, {"measurement": "tumor growth/volume change treated vs un-treated", "setting": "[5]; NALM-6/antagomiR-451 mice", "value": "significant difference in tumor growth/volume change"}, {"measurement": "mean tumor volume at the end of experiments", "setting": "[5]; antagomiR-451 group, FK866 15 mg/kg", "value": "117±81", "unit": "mm^3"}, {"measurement": "tumor growth/volume change treated vs untreated", "setting": "[6]; NALM-6/miR-451 mimic mice", "value": "Only a moderate difference in tumor growth/volume change"}, {"measurement": "mean tumor volume at the end of experiments", "setting": "[6]; miR-451 mimic group, FK866 15 mg/kg", "value": "544±64", "unit": "mm^3"}, {"measurement": "tolerability and safety", "setting": "[7]", "value": "well tolerated and safe"}]}
{"compound": "CCCCCCCCCCCCCC(=O)O[C@@H]1[C@@H](C)[C@@]2(O)[C@@H](C=C(CO)C[C@]3(O)C(=O)C(C)=C[C@@H]23)[C@@H]2C(C)(C)[C@]12OC(C)=O", "note": "[TPA, 12-O-tetradecanoylphorbol-13-acetate]", "values": [{"measurement": "increase in NAMPT expression levels", "setting": "[8]", "value": "more than 4 folds"}, {"measurement": "cellular NAD^+ levels, fold higher", "setting": "[9]", "value": 2, "unit": "fold"}]}
{"compound": "miR-1290 mimic: synthetic miR-1290 mimic, SEQ ID NO:4, for over-expression of miR-1290 (UGGAUUUUUGGAUCACCUGAUCCAAAAAU; listed as RNA, chemistry not given here)", "values": [{"measurement": "increase in the levels of phospho-STAT protein", "setting": "[10]", "value": 50, "unit": "%"}]}
